In brackets after ≈: the same amount, converted by molar mass.
Assays:
[1] = molecular target: Vascular endothelial growth factor receptor 2 (Homo sapiens, UniProt P35968); test: Inhibition of TEL-fused KDR (unknown origin) by cell-based assay
[2] = system: NCI-H2228; test: Antitumor activity against human NCI-H2228 cells xenografted in Rowett nude rat assessed as tumor growth inhibition factor at 5 mg/kg, po for 14 days measured 7 to 72 hrs post dosing relative to control; assay type: functional
[3] = molecular target: Tyrosine-protein kinase JAK2 (Homo sapiens, UniProt O60674); test: Inhibition of JAK2 (unknown origin) after 60 mins
[4] = Oral bioavailability in cynomolgus monkey at 60 mg/kg; assay type: ADME, organism-based, Macaca fascicularis; conditions: in vivo
[5] = Intrinsic clearance in rat liver microsomes; assay type: ADME, Microsome; conditions: read-out: CLH
[6] = Oral bioavailability in Beagle dog at 20 mg/kg; assay type: ADME, organism-based, Canis lupus familiaris; conditions: in vivo
[7] = Drug uptake in tumor of Rowett nude rat xenografted with human KARPAS299 cells at 50 mg/kg, po; assay type: ADME, organism-based, Neoplasm, KARPAS-299; parameters: dose 50 mg/kg, route oral; conditions: in vivo
[8] = Tmax in Beagle dog at 5 mg/kg, iv; assay type: ADME, organism-based, Canis lupus familiaris; parameters: dose 5 mg/kg, route intravenous; conditions: in vivo
[9] = molecular target: Cyclin-dependent kinase 4 (Homo sapiens, UniProt P11802); test: Inhibition of CDK4 (unknown origin) after 60 mins
Sequence of Cyclin-dependent kinase 4 (P11802 whole entry): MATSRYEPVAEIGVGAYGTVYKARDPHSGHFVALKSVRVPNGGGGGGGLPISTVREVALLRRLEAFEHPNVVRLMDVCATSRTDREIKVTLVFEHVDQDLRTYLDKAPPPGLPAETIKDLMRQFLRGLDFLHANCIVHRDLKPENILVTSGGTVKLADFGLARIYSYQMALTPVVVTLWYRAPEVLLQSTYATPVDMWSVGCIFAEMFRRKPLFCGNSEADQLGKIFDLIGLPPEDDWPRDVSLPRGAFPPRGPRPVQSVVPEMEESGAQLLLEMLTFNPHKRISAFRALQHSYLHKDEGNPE

[10] = Solubility of the compound […] at pH 6.8; assay type: physicochemical
[11] = Cmax in BALB/c mouse at 5 mg/kg, iv; assay type: ADME, organism-based; parameters: dose 5 mg/kg, route intravenous; conditions: in vivo
[12] = molecular target: Tyrosine-protein kinase SYK (Homo sapiens, UniProt P43405); test: Inhibition of SYK (unknown origin) after 60 mins
[13] = Plasma clearance in Beagle dog at 5 mg/kg, iv; assay type: ADME, organism-based, Canis lupus familiaris; parameters: dose 5 mg/kg, route intravenous
[14] = molecular target: Tyrosine-protein kinase Fgr (Homo sapiens, UniProt P09769); test: Inhibition of TEL-fused FGR (unknown origin) by cell-based assay
[15] = molecular target: Glycogen synthase kinase-3 beta (Homo sapiens, UniProt P49841); test: Inhibition of GSK3beta (unknown origin) after 60 mins
[16] = system: Rattus norvegicus; test: Inhibition of ALK-mediated STAT3 phosphorylation in human KARPAS299 cells xenografted in Rowett nude rat at 50 mg/kg, po after 72 hrs Western blotting analysis relative to control; assay type: functional; conditions: KARPAS-299, 72 h
[17] = in vivo; conditions: Sprague-Dawley, rat, po, 10 mg/kg
[18] = Half life in Sprague-Dawley rat at 3 mg/kg, iv; assay type: ADME, organism-based; parameters: dose 3 mg/kg, route intravenous; conditions: in vivo
[19] = molecular target: Proto-oncogene tyrosine-protein kinase Src (Homo sapiens, UniProt P12931); test: Inhibition of TEL-fused SRC (unknown origin) by cell-based assay
[20] = system: Rattus norvegicus; test: Toxicity in po dosed Rowett nude rat xenografted with human KARPAS299 cells assessed as body weight loss at 6.25 to 50 mg/kg, po; assay type: organism-based, KARPAS-299; parameters: dose 6.25-50 mg/kg, route oral; conditions: in vivo
[21] = Tmax in Sprague-Dawley rat at 10 mg/kg, po; assay type: ADME, organism-based; parameters: dose 10 mg/kg, route oral; conditions: in vivo
[22] = molecular target: Tyrosine-protein kinase ZAP-70 (Homo sapiens, UniProt P43403); test: Inhibition of ZAP70 (unknown origin) after 60 mins
[23] = Plasma clearance in Sprague-Dawley rat at 3 mg/kg, iv; assay type: ADME, organism-based; parameters: dose 3 mg/kg, route intravenous
[24] = molecular target: Receptor-type tyrosine-protein kinase FLT3 (Homo sapiens, UniProt P36888); test: Inhibition of FLT3 (unknown origin) after 60 mins
[25] = molecular target: Transcription factor ETV6 (Homo sapiens, UniProt P41212); test: Inhibition of wild-type TEL (unknown origin) by cell-based assay
[26] = molecular target: T1, Mast/stem cell growth factor receptor Kit (Homo sapiens, UniProt P10721); test: Inhibition of TEL-fused cKIT (unknown origin) by cell-based assay
T1 sequence (P10721 whole entry, the tested form may be a part): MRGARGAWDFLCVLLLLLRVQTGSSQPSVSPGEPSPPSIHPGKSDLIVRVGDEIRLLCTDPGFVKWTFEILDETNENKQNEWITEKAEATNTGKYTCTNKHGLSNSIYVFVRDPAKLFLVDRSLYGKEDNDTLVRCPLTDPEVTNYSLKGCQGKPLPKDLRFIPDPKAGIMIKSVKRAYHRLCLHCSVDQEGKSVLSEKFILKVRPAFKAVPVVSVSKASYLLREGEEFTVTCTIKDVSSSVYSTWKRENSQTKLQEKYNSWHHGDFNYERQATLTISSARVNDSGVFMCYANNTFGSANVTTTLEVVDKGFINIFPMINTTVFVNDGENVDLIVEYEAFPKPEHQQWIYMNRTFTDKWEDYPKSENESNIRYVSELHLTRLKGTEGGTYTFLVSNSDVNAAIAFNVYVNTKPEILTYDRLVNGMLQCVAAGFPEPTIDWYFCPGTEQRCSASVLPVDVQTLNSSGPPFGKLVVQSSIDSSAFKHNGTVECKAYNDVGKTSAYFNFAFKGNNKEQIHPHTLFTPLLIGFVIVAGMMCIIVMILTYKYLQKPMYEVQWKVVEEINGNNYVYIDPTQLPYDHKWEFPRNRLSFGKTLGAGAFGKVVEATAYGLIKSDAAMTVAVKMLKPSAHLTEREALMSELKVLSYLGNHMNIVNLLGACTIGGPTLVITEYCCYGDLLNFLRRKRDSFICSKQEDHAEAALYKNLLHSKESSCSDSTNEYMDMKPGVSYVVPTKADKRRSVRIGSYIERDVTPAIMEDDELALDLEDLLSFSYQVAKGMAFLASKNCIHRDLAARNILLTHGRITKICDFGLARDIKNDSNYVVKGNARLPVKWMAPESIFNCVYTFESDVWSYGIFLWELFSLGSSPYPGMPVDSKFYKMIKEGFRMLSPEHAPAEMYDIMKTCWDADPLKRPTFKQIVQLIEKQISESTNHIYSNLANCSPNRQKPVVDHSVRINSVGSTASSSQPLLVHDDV

[27] = molecular target: T1, Mast/stem cell growth factor receptor Kit; test: Inhibition of cKIT (unknown origin) after 60 mins
[28] = Plasma clearance in cynomolgus monkey at 5 mg/kg, iv; assay type: ADME, organism-based, Macaca fascicularis; parameters: dose 5 mg/kg, route intravenous
[29] = Half life in BALB/c mouse at 5 mg/kg, iv; assay type: ADME, organism-based; parameters: dose 5 mg/kg, route intravenous; conditions: in vivo
[30] = Half life in cynomolgus monkey at 5 mg/kg, iv; assay type: ADME, organism-based, Macaca fascicularis; parameters: dose 5 mg/kg, route intravenous; conditions: in vivo
[31] = Half life in Beagle dog at 5 mg/kg, iv; assay type: ADME, organism-based, Canis lupus familiaris; parameters: dose 5 mg/kg, route intravenous; conditions: in vivo
[32] = Inhibition of AKT (unknown origin) after 60 mins; parameters: species or system Homo sapiens
[33] = molecular target: BDNF/NT-3 growth factors receptor (Homo sapiens, UniProt Q16620); test: Inhibition of TEL-fused TRKB (unknown origin) by cell-based assay
[34] = molecular target: Tyrosine-protein kinase Lyn (Homo sapiens, UniProt P07948); test: Inhibition of LYN (unknown origin) after 60 mins
[35] = molecular target: Fibroblast growth factor receptor 3 (Homo sapiens, UniProt P22607); test: Inhibition of FGFR3 (unknown origin) after 60 mins
Sequence of Fibroblast growth factor receptor 3 (P22607 whole entry): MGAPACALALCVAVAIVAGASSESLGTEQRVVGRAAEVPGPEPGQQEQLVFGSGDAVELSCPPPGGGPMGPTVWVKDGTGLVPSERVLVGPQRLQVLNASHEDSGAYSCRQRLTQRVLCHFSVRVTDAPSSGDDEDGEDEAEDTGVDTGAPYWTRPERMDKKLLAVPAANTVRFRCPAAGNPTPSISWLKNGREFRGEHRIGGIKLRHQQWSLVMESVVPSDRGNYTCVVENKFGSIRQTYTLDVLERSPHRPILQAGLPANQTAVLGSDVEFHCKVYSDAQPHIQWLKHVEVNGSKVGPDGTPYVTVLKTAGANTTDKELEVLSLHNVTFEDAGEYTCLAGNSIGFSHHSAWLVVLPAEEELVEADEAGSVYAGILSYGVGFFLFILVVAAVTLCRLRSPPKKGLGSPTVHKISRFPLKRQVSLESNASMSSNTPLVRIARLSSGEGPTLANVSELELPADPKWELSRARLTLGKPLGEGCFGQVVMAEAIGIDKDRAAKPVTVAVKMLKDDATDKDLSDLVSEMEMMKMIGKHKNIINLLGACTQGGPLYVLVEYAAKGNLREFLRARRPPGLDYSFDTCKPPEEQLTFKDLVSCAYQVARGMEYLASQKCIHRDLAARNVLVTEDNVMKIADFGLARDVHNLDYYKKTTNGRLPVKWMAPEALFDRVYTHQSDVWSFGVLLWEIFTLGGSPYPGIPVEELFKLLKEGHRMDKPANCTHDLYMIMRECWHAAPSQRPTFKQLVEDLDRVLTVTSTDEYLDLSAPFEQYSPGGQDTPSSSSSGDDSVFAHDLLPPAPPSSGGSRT

[36] = system: NCI-H2228; test: Antitumor activity against human NCI-H2228 cells xenografted in Rowett nude rat assessed as tumor growth inhibition factor at 10 mg/kg, po for 14 days measured 7 to 72 hrs post dosing relative to control; assay type: functional
[37] = Toxicity in po dosed Rowett nude rat xenografted with human NCI-H2228 cells; assay type: organism-based; conditions: in vivo
[38] = Oral bioavailability in Sprague-Dawley rat at 10 mg/kg; assay type: ADME, organism-based; conditions: in vivo
[39] = molecular target: MAP kinase-interacting serine/threonine-protein kinase 2 (Homo sapiens, UniProt Q9HBH9); test: Inhibition of MKNK2 (unknown origin) after 60 mins
[40] = molecular target: Serine/threonine-protein kinase PAK 2 (Homo sapiens, UniProt Q13177); test: Inhibition of PAK2 (unknown origin) after 60 mins
Sequence of Serine/threonine-protein kinase PAK 2 (Q13177 whole entry): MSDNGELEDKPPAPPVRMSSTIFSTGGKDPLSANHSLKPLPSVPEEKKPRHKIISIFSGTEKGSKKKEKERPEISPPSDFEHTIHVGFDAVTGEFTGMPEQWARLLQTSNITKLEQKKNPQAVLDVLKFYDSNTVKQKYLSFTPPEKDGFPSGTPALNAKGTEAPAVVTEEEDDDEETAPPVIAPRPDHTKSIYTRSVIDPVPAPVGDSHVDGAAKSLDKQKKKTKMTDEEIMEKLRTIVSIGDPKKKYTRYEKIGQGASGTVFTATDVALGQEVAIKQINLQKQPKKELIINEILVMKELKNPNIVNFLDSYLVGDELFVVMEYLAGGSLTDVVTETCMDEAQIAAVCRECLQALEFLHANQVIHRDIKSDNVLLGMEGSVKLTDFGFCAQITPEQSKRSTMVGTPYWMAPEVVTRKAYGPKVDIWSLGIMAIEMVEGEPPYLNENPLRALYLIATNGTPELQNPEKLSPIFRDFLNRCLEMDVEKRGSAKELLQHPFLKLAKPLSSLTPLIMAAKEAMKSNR

[41] = Tmax in BALB/c mouse at 20 mg/kg, po; assay type: ADME, organism-based; parameters: dose 20 mg/kg, route oral; conditions: in vivo
[42] = Cmax in BALB/c mouse at 20 mg/kg, po; assay type: ADME, organism-based; parameters: dose 20 mg/kg, route oral; conditions: in vivo
[43] = molecular target: Tyrosine-protein kinase JAK3 (Homo sapiens, UniProt P52333); test: Inhibition of JAK3 (unknown origin) after 60 mins
[44] = system: KARPAS-299; test: Antitumor activity against human KARPAS299 cells xenografted in Rowett nude rat assessed as tumor regression at 50 mg/kg, po for 14 days measured 7 to 72 hrs post dosing relative to control; assay type: functional
[45] = molecular target: Tyrosine-protein kinase BTK (Homo sapiens, UniProt Q06187); test: Inhibition of BTK (unknown origin) after 60 mins
[46] = molecular target: Receptor-type tyrosine-protein kinase FLT3 (Homo sapiens, UniProt P36888); test: Inhibition of TEL-fused FLT3 (unknown origin) by cell-based assay
Target sequence in this assay (P36888 27-993 limits assumed): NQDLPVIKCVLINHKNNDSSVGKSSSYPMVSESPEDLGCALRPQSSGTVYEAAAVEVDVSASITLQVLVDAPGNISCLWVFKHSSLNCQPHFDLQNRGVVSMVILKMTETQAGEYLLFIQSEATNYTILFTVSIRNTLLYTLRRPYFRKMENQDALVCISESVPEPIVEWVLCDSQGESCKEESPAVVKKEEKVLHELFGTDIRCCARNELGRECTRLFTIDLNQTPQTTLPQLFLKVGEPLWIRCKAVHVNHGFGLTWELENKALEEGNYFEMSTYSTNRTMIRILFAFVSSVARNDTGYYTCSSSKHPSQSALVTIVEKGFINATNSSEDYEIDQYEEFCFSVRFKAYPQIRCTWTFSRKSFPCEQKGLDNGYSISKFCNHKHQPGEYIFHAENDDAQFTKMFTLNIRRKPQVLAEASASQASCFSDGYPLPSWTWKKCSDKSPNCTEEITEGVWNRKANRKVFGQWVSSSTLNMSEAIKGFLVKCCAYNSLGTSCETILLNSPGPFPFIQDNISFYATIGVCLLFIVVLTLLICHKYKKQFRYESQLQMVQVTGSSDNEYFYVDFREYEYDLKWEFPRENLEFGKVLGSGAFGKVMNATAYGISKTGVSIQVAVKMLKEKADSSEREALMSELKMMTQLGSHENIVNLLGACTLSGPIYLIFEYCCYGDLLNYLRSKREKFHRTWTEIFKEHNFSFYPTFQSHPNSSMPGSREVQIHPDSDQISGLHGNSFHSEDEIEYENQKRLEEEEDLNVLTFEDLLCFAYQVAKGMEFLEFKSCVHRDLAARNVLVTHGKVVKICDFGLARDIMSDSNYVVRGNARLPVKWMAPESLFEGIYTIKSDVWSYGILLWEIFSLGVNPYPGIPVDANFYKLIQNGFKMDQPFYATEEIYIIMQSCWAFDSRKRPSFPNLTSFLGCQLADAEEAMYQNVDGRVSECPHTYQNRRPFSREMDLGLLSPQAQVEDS

[47] = system: Rattus norvegicus; test: Toxicity in po dosed Rowett nude rat xenografted with human NCI-H2228 cells assessed as body weight loss at 5 to 25 mg/kg, po; assay type: organism-based; parameters: dose 5-25 mg/kg, route oral; conditions: in vivo
[48] = molecular target: Tyrosine-protein kinase JAK1 (Homo sapiens, UniProt P23458); test: Inhibition of JAK1 (unknown origin) after 60 mins
Sequence of Tyrosine-protein kinase JAK1 (P23458 whole entry): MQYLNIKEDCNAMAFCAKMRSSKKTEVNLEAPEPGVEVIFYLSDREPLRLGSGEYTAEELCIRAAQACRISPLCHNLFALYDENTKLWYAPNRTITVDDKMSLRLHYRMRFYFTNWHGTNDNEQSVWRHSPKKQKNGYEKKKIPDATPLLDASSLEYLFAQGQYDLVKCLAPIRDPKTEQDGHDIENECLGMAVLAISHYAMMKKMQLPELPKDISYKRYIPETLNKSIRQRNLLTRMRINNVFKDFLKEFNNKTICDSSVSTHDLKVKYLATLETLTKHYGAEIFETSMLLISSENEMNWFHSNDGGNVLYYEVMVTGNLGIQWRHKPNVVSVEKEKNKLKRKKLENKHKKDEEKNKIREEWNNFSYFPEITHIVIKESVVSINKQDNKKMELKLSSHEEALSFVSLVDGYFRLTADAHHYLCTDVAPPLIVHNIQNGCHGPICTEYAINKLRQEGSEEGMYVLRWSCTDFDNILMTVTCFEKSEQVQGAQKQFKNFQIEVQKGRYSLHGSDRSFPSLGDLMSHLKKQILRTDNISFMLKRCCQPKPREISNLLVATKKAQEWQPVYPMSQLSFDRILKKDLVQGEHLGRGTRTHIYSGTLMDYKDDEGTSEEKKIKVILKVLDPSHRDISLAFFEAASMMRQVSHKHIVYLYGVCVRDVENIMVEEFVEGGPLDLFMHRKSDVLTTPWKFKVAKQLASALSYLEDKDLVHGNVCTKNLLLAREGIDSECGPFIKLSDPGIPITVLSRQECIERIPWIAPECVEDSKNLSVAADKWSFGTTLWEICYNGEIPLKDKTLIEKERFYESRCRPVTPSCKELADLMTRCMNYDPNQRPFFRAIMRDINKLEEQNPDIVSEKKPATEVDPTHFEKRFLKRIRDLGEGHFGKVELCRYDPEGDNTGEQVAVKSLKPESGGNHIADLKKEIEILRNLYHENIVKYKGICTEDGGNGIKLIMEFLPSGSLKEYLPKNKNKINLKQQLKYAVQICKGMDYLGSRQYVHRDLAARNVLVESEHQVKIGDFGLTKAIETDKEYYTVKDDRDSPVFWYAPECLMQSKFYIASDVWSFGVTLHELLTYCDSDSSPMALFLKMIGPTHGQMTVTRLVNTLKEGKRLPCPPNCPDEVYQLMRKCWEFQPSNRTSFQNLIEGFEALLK

[49] = Tmax in BALB/c mouse at 5 mg/kg, iv; assay type: ADME, organism-based; parameters: dose 5 mg/kg, route intravenous; conditions: in vivo
[50] = Volume of distribution at steady state in cynomolgus monkey at 5 mg/kg, iv; assay type: ADME, organism-based, Macaca fascicularis; parameters: dose 5 mg/kg, route intravenous; conditions: in vivo, read-out: Vdss
[51] = AUC in BALB/c mouse at 5 mg/kg, iv; assay type: ADME, organism-based; parameters: dose 5 mg/kg, route intravenous; conditions: plasma
[52] = AUC in Sprague-Dawley rat at 10 mg/kg, po; assay type: ADME, organism-based; parameters: dose 10 mg/kg, route oral; conditions: plasma
[53] = Tmax in Beagle dog at 20 mg/kg, po; assay type: ADME, organism-based, Canis lupus familiaris; parameters: dose 20 mg/kg, route oral; conditions: in vivo

SMILES: Cc1cc(Nc2ncc(Cl)c(Nc3ccccc3S(=O)(=O)C(C)C)n2)c(OC(C)C)cc1C1CCNCC1 [CERITINIB]
- IC50 [1]: 4.21 µM
- T/C [2]: 67%
- IC50 [3]: 0.61 µM
- bioavailability [4]: 56%
- microsomal CLint [5]: 10 µL/min/mg
- bioavailability [6]: 119%
- Drug uptake [7]: Active
- Tmax [8]: 1.8 min
- IC50 [9]: 4.72 µM
- solubility [10]: 24 µM (≈ 13.4 µg/mL)
- Cmax [11]: 1760 nM
- IC50 [12]: 3.05 µM
- clearance [13]: 9.2 mL/min/kg
- IC50 [14]: 1.95 µM
- IC50 [15]: > 10 µM
- inhibition in vivo at 50 mg/kg [16]: 80%
- Cmax [17]: 259 nM
- half-life [18]: 9.1 h
- IC50 [19]: 1.69 µM
- Activity [20]: Non-toxic
- Tmax [21]: 7 h
- IC50 [22]: 9.7 µM
- clearance [23]: 36.8 mL/min/kg
- IC50 [24]: 0.06 µM
- IC50 [25]: 3.25 µM
- IC50 [26]: 2.86 µM
- IC50 [27]: 1.28 µM
- clearance [28]: 12.8 mL/min/kg
- half-life [29]: 6.2 h
- half-life [30]: 26 h
- half-life [31]: 21 h
- IC50 [32]: > 10 µM
- IC50 [33]: 1.83 µM
- IC50 [34]: 0.84 µM
- IC50 [35]: 0.43 µM
- T/C [36]: 2%
- MTD [37]: 5 mg/kg
- bioavailability [38]: 66%
- IC50 [39]: 2.24 µM
- IC50 [40]: > 10 µM
- Tmax [41]: 7 h
- Cmax [42]: 696 nM
- IC50 [43]: 7.92 µM
- T/C [44]: -66%
- IC50 [45]: 3.36 µM
- IC50 [46]: 3.14 µM
- Activity [47]: Non-toxic
- IC50 [48]: 3.73 µM
- Tmax [49]: 1.8 min
- Vd [50]: 15 L/kg
- AUC [51]: 5.63 µM·h
- AUC [52]: 6.09 µM·h
- Tmax [53]: 8 h
